Structures can show the parent of a compound that is named as a salt.
How the values were obtained:
[1] = system: F. occidentalis; test: Field trial: catch on blue sticky traps in sweet pepper greenhouses; format: in vivo, Frankliniella occidentalis
Description: The biological activity of neryl (S)-2 methylbutanoate was tested in commercial crops of sweet pepper (var. Habana) grown in greenhouses at Zamora (37°42.945′N, 0°57.720′W) near Torre Pacheco in the Murcia region of Spain. The crops were about 110 cm high, planted in rows 1 m apart, and were naturally infested with a low level of F. occidentalis. Three 2-day long experiments were carried out, alternating between two nearby houses, each with an area of about 6500 m^2.
The compound was released from rubber septa (6.3 mm diameter×10.8 mm long) (100706; Aldrich, UK) that had been preextracted in hexane-dichloromethane and dried in an oven at 50° C. Septa were loaded with solutions of the test compound in hexane or with hexane alone (control). After evaporation of the solvent, the rubber septa were stored in aluminum foil bags. They were placed on traps in the field within 2 hr of preparation.
Blue plastic rectangular takitraps (10×25 cm) (Syngenta Bioline, UK), coated on both surfaces with insect glue, were suspended vertically with the base about 10 cm above crop height, by attaching them to crop support strings with a wooden clothes peg. One rubber septum was stuck to the center of the north-facing side of each trap.
Each experiment was laid out in a randomized complete block design with 20 blocks and one replicate per block. Traps were placed about 3.4 m apart down rows of sweet pepper plants with 16 m between each row of traps. The experiment compared two doses, 30 ng and 30 μg, of neryl (S)-2-methylbutanoate with a control.
Thrips caught on the blue sticky traps were examined under a stereoscopic microscope to identify their sex and to distinguish F. occidentalis from about 2% of the thrips that were other species (Thrips spp., aeolothripids, and phlaeothripids). The data were log10(x+1) transformed and analyzed by two-way ANOVA for females, males, and both sexes combined. Multiple comparisons with the control used Dunnett's multiple comparison test. Statistical analysis was carried out with Minitab 14 (Minitab Inc., Pennsylvania, USA).

[2] = system: female Western Flower Thrips; test: Y-tube olfactometer bioassay; format: in vivo, Frankliniella occidentalis; conditions: for attractant effect (in words): female Western Flower Thrips; for effect upon female Western Flower Thrips (in words): doses of 1 ng, and 100 ng
Description: Thrips were originally obtained from a commercial glasshouse and then maintained on pot chrysanthemums (Dendranthema x grandiflora (Ramat.) Kitamura) at 25° C. under a repeated cycle consisting of 18 hours of light and 6 hours of dark. The culture on chrysanthemums supplied mixed-age adult females, which were attracted to adult males in olfactometer bioassays, so these were used in the bioassays.
The Y-tube has two branches at an angle of 90° and a stem, which are all 60 mm long with internal diameters of 5 mm. The Y-tube was held horizontal and illuminated from above by four fluorescent tubes (950 lux). It was screened by a 10 cm high matt-black card wall, forming a 280 mm×280 mm square, to minimise any external visual influences. A 50 ml round glass flask with a Drechsel head was inserted in the tube before each branch and a semi-circle of filter paper (Whatman No. 1, diameter 42.5 mm), moistened with water, was placed in each to humidify the air. Connections between tubes are either made with brass swagelock connectors or by inserting narrower tubes into slightly wider tubes. All the glassware and the glass wool were rinsed thoroughly in warm water with Teepol ‘L’ neutral detergent (BDH Laboratory Supplies, Poole), then in distilled water, then in acetone, and left to dry overnight in an oven at 200° C. before each experiment. The connecting Teflon tubing and the swagelock connectors were rinsed thoroughly in warm water with Teepol ‘L’ neutral detergent, then in distilled water, then in hexane, and left to dry overnight in a fume cupboard before each run of an experiment.
Zero-grade clean air from a cylinder (supplied by British Oxygen Corporation, Manchester) was passed through an activated charcoal filter and then along Teflon tubes to two flow meters (Supelco, Sigma-Aldrich, Poole) that regulated the air flow to the two branches of a glass Y-tube. The rate in the two branches was 50 mm s^−1 (59 ml min^−1) and in the stem was 100 mm s^−1 (118 ml min^−1) and were checked with a bubble flow meter.
Adults were placed one at a time in the stem of the Y-tube, by transferring them with a fine paintbrush, and allowed to walk up the Y-tube. A choice was recorded when they first crossed a line 20 mm down either branch from the junction of the “Y”. If a choice was not made within 3 min, it was recorded as “no choice” and excluded from the analysis. Each individual was tested twice to provide two successive choices. The sample flasks, connecting tubing and Y-tube were reversed after every 5 individuals. This reduced possible bias from external influences. Each experiment consisted of 1 to 3 runs on separate days to reduce possible bias from external influences. A total of 25 individuals were tested in each run of an experiment, which lasted about 2 h. Experiments were conducted at 25±1° C.
At the start of each run, 0.2 ml of distilled water was placed on the filter paper in each flask. […] The filter papers were removed and replaced with fresh water and test and control substances every time the equipment was reversed.
It was shown that there was no preference in thrips response by testing mixed-age females (in the absence of a test composition) in the Y-tube olfactometer on 3 separate days. The apparatus was set up as before, but with only water and hexane in each flask. Since the arms of the Y-tube were reversed by rotating the stem by 180° after every five individuals, the difference in the number of choices between left and right and between arm A and arm B could be tested separately. There was no preference to the left or right or for arm A or arm B thus establishing that the apparatus was unbiased.
In each case 25 adult females were tested in 2 or 3 separate runs. The compound was applied in 1 μl hexane.
Example 1 was repeated using each of isobornyl 2-methyl butanoate, isobornyl pivalate and lavandulyl valerate in amounts of 0.1 ng. […]

[3] = 0.1 ng, filter paper placed in Teflon tube instead of glass flask

CC[C@H](C)C(=O)OC/C=C(/C)CCC=C(C)C [N(S)2MB, neryl (S)-2-methylbutanoate]
Mean catch over 2 days ± SE (N = 20) ([1]; Both sexes, high dose 30 μg on rubber septum): 22.2 ± 2.0 | Mean catch over 2 days ± SE (N = 20) ([1]; Both sexes, low dose 30 ng on rubber septum): 18.7 ± 1.7 ns | Mean catch over 2 days ± SE (N = 20) ([1]; Females, high dose 30 μg on rubber septum): 9.1 ± 1.2 | Mean catch over 2 days ± SE (N = 20) ([1]; Females, low dose 30 ng on rubber septum): 6.8 ± 0.7 ns | Mean catch over 2 days ± SE (N = 20) ([1]; Males, high dose 30 μg on rubber septum): 13.2 ± 1.1 | Mean catch over 2 days ± SE (N = 20) ([1]; Males, low dose 30 ng on rubber septum): 11.9 ± 1.2 ns | effect on trap catches (in words) ([1]; dose of 30 μg, both sexes attracted): increased trap catches significantly

CCCCC(=O)OC1CC2CCC1(C)C2(C)C (stereo not shown) [isobornyl valerate]
Preference (%) ([2]; 0.002 ng compound in 1 μl hexane, adult females, combined runs): 64.8% | Preference (%) ([2]; 0.02 ng compound in 1 μl hexane, adult females, combined runs): 73.3% | Preference (%) ([2]; 0.1 ng compound in 1 μl hexane, adult females, combined runs): 76.9% | Preference (%) ([2]; 0.2 ng compound in 1 μl hexane, adult females, combined runs): 79.8% | Preference (%) ([2]; 2 ng compound in 1 μl hexane, adult females, combined runs): 60.3% | attractant effect (in words) ([2]; 0.002-2 ng (Table 1) or 0.1 ng (Example 2)): strong attractant

CC(C)(C)C(=O)OC1CC2CCC1(C)C2(C)C (stereo not shown) [isobornyl pivalate]
Preference (%) [2, 3]: 61.3%

C=C(C)C(CC=C(C)C)COC(C)=O (stereo not shown) [lavandulyl acetate, reference compound]
attractant effect (in words) ([2]; doses of 0.1 ng, 1 ng, 10 ng, 100 ng and 1000 ng): no attractant effect

CC(=O)OC/C=C(/C)CCC=C(C)C [Neryl Acetate, reference compound]
effect upon female Western Flower Thrips (in words) [2]: no effect

C=C(C)C(CC=C(C)C)COC(=O)CCCC (stereo not shown) [lavandulyl valerate]
Preference (%) [2, 3]: 79.2%

CCC(C)C(=O)OC1CC2CCC1(C)C2(C)C (stereo not shown) [Isobornyl 2-methyl butanoate, isobornyl 2-methyl butanoate]
Preference (%) [2, 3]: 72.9%

CC(C)=CCC/C(C)=C\COC=O [Neryl Formate, reference compound]
effect upon female Western Flower Thrips (in words) [2]: no effect

— patent US7985412B2, “Method of monitoring/controlling thysanoptera” (Keele University, priority 2004, dated 2011)
